{"source": "patent US20110039770A1", "about": "“INHIBITORS OF PROTEIN KINASE C ISOFORMS AND USES THEREOF” (PHARMAGAP INC., priority 2005, published 2011)", "key": {"[1]": {"experiment": "Repeat-dose toxicity study in mice", "format": "in vivo, mouse", "settings": "72-hour dosing schedule up to 75 days, subcutaneous", "from_the_text": "A dosage of 25 micrograms per mouse was provided to a cohort of mice by subcutaneous injection. No physiological, behavioral or external signs of toxicity were observed."}, "[2]": {"molecular_target": "PKC alpha (Homo sapiens, UniProt P17252)", "experiment": "PKC isoform protein levels in cancer cell lines after TIM 10 (Western blot)", "format": "cell-based", "parameters": "endogenous in cells; host or cells: MDA MB-231, T24, SKOV-3, MCF-7, Capan-2, NCI-H661, Calu-6, Calu-3", "settings": "5 mM by pinocytic influx, 24 hrs", "protocol": "The effect of compound TIM 10 on the levels of protein for various PKC isoforms was assessed as generally described below in the following human cancer cell lines: MDA MB-231 breast adenocarcinoma cells (ATCC HTB-26); T24 bladder transitional cell carcinoma (ATCC HTB-4); SKOV-3 ovary adenocarcinoma (ATCC HTB-77); MCF-7 breast adenocarcinoma (ATCC HTB-22); Capan-2 pancreatic adenocarcinoma (ATCC HTB-80); NCI-H661 NSCL large cells (ATCC HTB-183); Calu-6 probable lung anaplastic carcinoma (ATCC HTB-56) and Calu-3 lung adenocarcinoma (ATCC HTB-55).\nCells representative of the different cancer types were cultured according to ATCC instructions. At subconfluence, the cells were trypsinized and compound 10 (5 mM) was incorporated into the cells by pinocytic influx endocytosis according to the manufacturer's instructions (Molecular Probe). Matching controls were treated accordingly except that vehicle was incorporated instead of compound 10. Following pinocytic influx, the cells were seeded and allowed to grow in fresh medium for 24 hrs. The cell cultures were further extracted using RIPA lysis buffer according to standard protocol. The protein content of each lysate was measured using Bradford protein estimation procedure (BioRad) and normalized. Following addition of sample buffer, the proteins from 15 μl of each extract were separated by electrophoresis, electro-transferred to nitrocellulose membranes and the various isoforms of PKC were detected using appropriate antibodies (Santa Cruz Biotechnology, Inc., CA). The relative intensity of bands of the expected molecular weight was estimated after scanning and the % decrease in the band intensity relative to control was calculated."}}, "note": "Where a SMILES comes first, the peptide text is derived from it. The star is where a group is joined. PNA(A) = NCCN(CC(=O)*)C(=O)Cn1cnc2c(N)ncnc21"}
{"smiles": "CC[C@H](C)[C@H](NC(=O)[C@H](CO)NC(=O)[C@@H](NC(=O)CNC(=O)[C@@H](NC(=O)[C@H](CC(C)C)NC(=O)[C@H](CC(N)=O)NC(=O)[C@H](CCC(N)=O)NC(=O)[C@H](C)NC(=O)[C@H](CC(=O)O)NC(=O)[C@H](CCCCN)NC(=O)CNC(=O)CNC(=O)CNC(=O)CNC(=O)CNC(=O)CNC(=O)CNC(=O)[C@H](CC(C)C)NC(=O)[C@H](CCCNC(=N)N)NC(=O)[C@H](Cc1ccccc1)NC(=O)[C@H](CCCCNC(=O)CN(CCN)C(=O)Cn1cnc2c(N)ncnc21)NC(=O)[C@H](CCCNC(=N)N)NC(=O)[C@H](CCCNC(=N)N)NC(=O)[C@H](Cc1ccccc1)NC(C)=O)[C@@H](C)CC)[C@@H](C)CC)C(N)=O", "note": "[TIM 10] (Ac-FRRK(PNA(A))FRLGGGGGGGKDAQNLIGISI-NH2)", "values": [{"measurement": "toxicity on repeated dosing", "setting": "[1]", "value": "no evidence of toxicity"}, {"measurement": "toxicity on repeated dosing", "setting": "[1]; listed as PhGalpha1", "value": "No evidence of toxicity"}, {"measurement": "% decrease PKC-α band intensity relative to control", "setting": "[2]; Calu-3", "value": 21.8, "unit": "%"}, {"measurement": "% decrease PKC-α band intensity relative to control", "setting": "[2]; Calu-6", "value": 57.8, "unit": "%"}, {"measurement": "% decrease PKC-α band intensity relative to control", "setting": "[2]; Capan-2", "value": 53.4, "unit": "%"}, {"measurement": "% decrease PKC-α band intensity relative to control", "setting": "[2]; H661", "value": 28.1, "unit": "%"}, {"measurement": "% decrease PKC-α band intensity relative to control", "setting": "[2]; MCF-7", "value": 12.0, "unit": "%"}, {"measurement": "% decrease PKC-α band intensity relative to control", "setting": "[2]; MDA-MB231", "value": 36.6, "unit": "%"}, {"measurement": "% decrease PKC-α band intensity relative to control", "setting": "[2]; SK-OV-3", "value": 63.4, "unit": "%"}, {"measurement": "% decrease PKC-α band intensity relative to control", "setting": "[2]; T24", "value": 42.5, "unit": "%"}]}
